Experimental findings from patent US20240150293A1, “SPIROCYCLOHEXANE DERIVATIVES, PHARMACEUTICAL COMPOSITIONS CONTAINING THEM AND THEIR USES AS ANTI-APOPTOTIC INHIBITORS” (LES LABORATOIRES SERVIER, priority 2021, published 2024) are described below.

One may read the Ki as the dissociation constant of the complex between target and ligand, obtained from inhibition or displacement.

Structures are written as SMILES.

The target in the experiment is Mcl-1 protein (UniProtKB Q07820) (Homo sapiens (Human), UniProt Q07820). Nature of the experiment: Inhibition of Mcl-1 by the fluorescence polarisation assay (Example A, Method A). The experiment is classed as binding. The conditions noted are these: fluorescence polarization assay. Summed up: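 Protein (5 nM) and fluorescein-tagged peptide tracer (1 nM) incubated with 11-point compound series for 2 h at room temperature in HEPES/NaCl/Tween 20 buffer, pH 7.4, 5% DMSO. Displacement read as decrease in polarisation; IC50 fitted by 4-parameter logistic, converted to Ki (cKi or eKi).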
Mcl-1 protein, sequence (Q07820 whole entry): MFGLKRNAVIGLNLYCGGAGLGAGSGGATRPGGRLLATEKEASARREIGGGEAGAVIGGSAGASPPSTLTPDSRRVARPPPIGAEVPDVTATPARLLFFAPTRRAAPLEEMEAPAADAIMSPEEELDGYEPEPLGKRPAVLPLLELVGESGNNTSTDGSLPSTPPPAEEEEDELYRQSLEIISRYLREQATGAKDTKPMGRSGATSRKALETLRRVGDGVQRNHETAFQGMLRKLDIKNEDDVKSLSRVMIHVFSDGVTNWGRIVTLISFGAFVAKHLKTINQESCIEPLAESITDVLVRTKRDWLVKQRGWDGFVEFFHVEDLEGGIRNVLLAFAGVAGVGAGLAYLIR
In the case of `COc1ccc(CCOCC2=Cc3ccccc3[C@]23CC[C@@](Nc2cccc(Cl)c2)(C(=O)O)CC3)cc1` [Example 421, (1s,4s)-4-(3-chloroanilino)-2′-{[2-(4-methoxyphenyl)ethoxy]methyl}spiro[cyclohexane-1,1′-indene]-4-carboxylic acid], the Ki was found to be 793 nM. To `O=C(O)[C@]1(Nc2cccc(Cl)c2)CC[C@]2(CC1)C(CCCOc1ccccc1)=Cc1ccccc12` [Example 422, (1r,4r)-4-(3-chloroanilino)-2′-(3-phenoxypropyl)spiro[cyclohexane-1,1′-indene]-4-carboxylic acid] belongs 95.9 nM; to `O=C(O)[C@]1(Nc2cccc(Cl)c2)CC[C@@]2(CC1)c1ccccc1CC2CCCOc1ccccc1` (stereo partly shown) [Example 423, (1r,4r)-4-(3-chloroanilino)-2′-(3-phenoxypropyl)-2′,3′-dihydrospiro[cyclohexane-1,1′-indene]-4-carboxylic acid], 224 nM; to `O=C(O)[C@]1(Nc2cccc(Cl)c2)CC[C@@]2(CC1)c1ccccc1CC2CCCOc1ccccc1` (stereo partly shown) [Example 424, (1r,4r)-4-(3-chloroanilino)-2′-(3-phenoxypropyl)-2′,3′-dihydrospiro[cyclohexane-1,1′-indene]-4-carboxylic acid], 184 nM. To `O=C(O)[C@]1(Nc2cccc(Cl)c2)CC[C@@]2(CC1)c1ccccc1CC2CCCOc1ccc(F)cc1` (stereo partly shown) [Example 425, (1r,4r)-4-(3-chloroanilino)-2′-[3-(4-fluorophenoxy)propyl]-2′,3′-dihydrospiro[cyclohexane-1,1′-indene]-4-carboxylic acid] belongs 477 nM; to `O=C(O)[C@]1(Nc2cccc(Cl)c2)CC[C@@]2(CC1)c1ccccc1CC2CCCOc1ccc2c(c1)OCO2` (stereo partly shown) [Example 428, (1r,4r)-2′-{3-[(2H-1,3-benzodioxol-5-yl)oxy]propyl}-4-(3-chloroanilino)-2′,3′-dihydrospiro[cyclohexane-1,1′-indene]-4-carboxylic acid], 393 nM.

As for `Nc1cc(Cl)c(OCCCC2Cc3ccccc3[C@]23CC[C@@](Nc2cccc(Cl)c2)(C(=O)O)CC3)c(Cl)c1` (stereo partly shown) [Example 429, (1r,4r)-2′-[3-(4-amino-2,6-dichlorophenoxy)propyl]-4-(3-chloroanilino)-2′,3′-dihydrospiro[cyclohexane-1,1′-indene]-4-carboxylic acid], the Ki turned out to be 165 nM. To `O=C(O)[C@]1(Nc2cccc(Cl)c2)CC[C@@]2(CC1)c1ccccc1CC2CCCOc1cc(F)cc(Cl)c1` (stereo partly shown) [Example 430, (1r,4r)-4-(3-chloroanilino)-2′-[3-(3-chloro-5-fluorophenoxy)propyl]-2′,3′-dihydrospiro[cyclohexane-1,1′-indene]-4-carboxylic acid] belongs 206 nM; to `O=C(O)[C@]1(Nc2cccc(Cl)c2)CC[C@@]2(CC1)c1ccccc1CC2CCCOc1ccccc1Cl` (stereo partly shown) [Example 431, (1r,4r)-4-(3-chloroanilino)-2′-[3-(2-chlorophenoxy)propyl]-2′,3′-dihydrospiro[cyclohexane-1,1′-indene]-4-carboxylic acid], 138 nM.

Consider `O=C(O)[C@]1(Nc2cccc(Cl)c2)CC[C@@]2(CC1)c1ccccc1CC2CCCOc1ccncc1F` (stereo partly shown) [Example 432, (1r,4r)-4-(3-chloroanilino)-2′-{3-[(3-fluoropyridin-4-yl)oxy]propyl}-2′,3′-dihydrospiro[cyclohexane-1,1′-indene]-4-carboxylic acid], for which the inhibition constant (Ki) turned out to be 38.9 nM.

Turning to `O=C(O)[C@]1(Nc2cccc(Cl)c2)CC[C@@]2(CC1)c1ccccc1CC2CCCOc1n[nH]c2c1CCCC2` (stereo partly shown) [Example 433, (1r,4r)-4-(3-chloroanilino)-2′-{3-[(4,5,6,7-tetrahydro-1H-indazol-3-yl)oxy]propyl}-2′,3′-dihydrospiro[cyclohexane-1,1′-indene]-4-carboxylic acid], the Ki is 1750 nM.

As to `O=C(O)[C@]1(Nc2cccc(Cl)c2)CC[C@]2(CC1)C(CCCOc1cccc3[nH]ccc13)=Cc1ccccc12` [Example 434, (1r,4r)-4-(3-chloroanilino)-2′-{3-[(1H-indol-4-yl)oxy]propyl}spiro[cyclohexane-1,1′-indene]-4-carboxylic acid], the Ki came to 93.5 nM.

With `O=C1CCc2c(OCCCC3Cc4ccccc4[C@]34CC[C@@](Nc3cccc(Cl)c3)(C(=O)O)CC4)cccc21` (stereo partly shown) [Example 435, (1r,4r)-4-(3-chloroanilino)-2′-{3-[(1-oxo-2,3-dihydro-1H-inden-4-yl)oxy]propyl}-2′,3′-dihydrospiro[cyclohexane-1,1′-indene]-4-carboxylic acid], the Ki turned out to be 555 nM.

`Cc1cc(OCCCC2Cc3ccccc3C23CCC(Nc2cccc(Cl)c2)(C(=O)O)CC3)cc(C)c1Cl` (stereo not shown) [Example 436, (1r,4r)-4-(3-chloroanilino)-2′-[3-(4-chloro-3,5-dimethylphenoxy)propyl]-2′,3′-dihydrospiro[cyclohexane-1,1′-indene]-4-carboxylic acid]: the Ki was 918 nM. For `O=C(O)C1(Nc2cccc(Cl)c2)CCC2(CC1)c1ccccc1CC2CCCOc1ncnc2ccsc12` (stereo not shown) [Example 437, (1r,4r)-4-(3-chloroanilino)-2′-{3-[(thieno[3,2-d]pyrimidin-4-yl)oxy]propyl}-2′,3′-dihydrospiro[cyclohexane-1,1′-indene]-4-carboxylic acid], the inhibition constant (Ki) was 77.6 nM.

As for `COc1cncnc1OCCCC1Cc2ccccc2[C@]12CC[C@@](Nc1cccc(Cl)c1)(C(=O)O)CC2` (stereo partly shown) [Example 438, (1r,4r)-4-(3-chloroanilino)-2′-{3-[(5-methoxypyrimidin-4-yl)oxy]propyl}-2′,3′-dihydrospiro[cyclohexane-1,1′-indene]-4-carboxylic acid], the inhibition constant (Ki) turned out to be 202 nM. Take `Cc1cncnc1OCCCC1Cc2ccccc2[C@]12CC[C@@](Nc1cccc(Cl)c1)(C(=O)O)CC2` (stereo partly shown) [Example 441, (1r,4r)-4-(3-chloroanilino)-2′-{3-[(5-methylpyrimidin-4-yl)oxy]propyl}-2′,3′-dihydrospiro[cyclohexane-1,1′-indene]-4-carboxylic acid]: the Ki was 69.1 nM.

As to `O=C(O)[C@]1(Nc2cccc(Cl)c2)CC[C@@]2(CC1)c1ccccc1CC2CCCOc1ccccc1C(F)(F)F` (stereo partly shown) [Example 443, (1r,4r)-4-(3-chloroanilino)-2′-{3-[2-(trifluoromethyl)phenoxy]propyl}-2′,3′-dihydrospiro[cyclohexane-1,1′-indene]-4-carboxylic acid], the inhibition constant Ki is 106 nM. The same measure for `Cc1cc2nccc(OCCCC3Cc4ccccc4[C@]34CC[C@@](Nc3cccc(Cl)c3)(C(=O)O)CC4)c2s1` (stereo partly shown) [Example 446, (1r,4r)-4-(3-chloroanilino)-2′-{3-[(2-methylthieno[3,2-b]pyridin-7-yl)oxy]propyl}-2′,3′-dihydrospiro[cyclohexane-1,1′-indene]-4-carboxylic acid]: 134 nM; for `O=C(O)[C@]1(Nc2cccc(Cl)c2)CC[C@@]2(CC1)c1ccccc1CC2CCCOc1ccnc2ccoc12` (stereo partly shown) [Example 447, (1r,4r)-4-(3-chloroanilino)-2′-{3-[(furo[3,2-b]pyridin-7-yl)oxy]propyl}-2′,3′-dihydrospiro[cyclohexane-1,1′-indene]-4-carboxylic acid]: 127 nM; for `O=C(O)[C@]1(Nc2cccc(Cl)c2)CC[C@@]2(CC1)c1ccccc1CC2CCCOc1cncnc1` (stereo partly shown) [Example 450, (1r,4r)-4-(3-chloroanilino)-2′-{3-[(pyrimidin-5-yl)oxy]propyl}-2′,3′-dihydrospiro[cyclohexane-1,1′-indene]-4-carboxylic acid]: 781 nM. Consider `O=C(O)[C@]1(Nc2cccc(Br)c2)CC[C@]2(CC1)C(CCCOc1ccnc3ccsc13)=Cc1ccccc12` [Example 454, (1r,4r)-4-(3-bromoanilino)-2′-{3-[(thieno[3,2-b]pyridin-7-yl)oxy]propyl}spiro[cyclohexane-1,1′-indene]-4-carboxylic acid], for which the inhibition constant (Ki) is 141 nM.

Take `O=C(O)[C@]1(Nc2ccccc2)CC[C@]2(CC1)C(CCCOc1ccnc3ccsc13)=Cc1ccccc12` [Example 455, (1r,4r)-4-anilino-2′-{3-[(thieno[3,2-b]pyridin-7-yl)oxy]propyl}spiro[cyclohexane-1,1′-indene]-4-carboxylic acid]: the Ki turned out to be 1030 nM. `Cc1cncnc1OCCCC1=Cc2ccccc2[C@]12CC[C@@](Nc1cccc(Br)c1)(C(=O)O)CC2` [Example 456, (1r,4r)-4-(3-bromoanilino)-2′-{3-[(5-methylpyrimidin-4-yl)oxy]propyl}spiro[cyclohexane-1,1′-indene]-4-carboxylic acid]: the Ki came to 104 nM. The same measure for `Cc1cc(OCCCC2Cc3ccccc3[C@]23CC[C@@](Nc2cccc(Cl)c2)(C(=O)O)CC3)ccn1` (stereo partly shown) [Example 457, (1r,4r)-4-(3-chloroanilino)-2′-{3-[(2-methylpyridin-4-yl)oxy]propyl}-2′,3′-dihydrospiro[cyclohexane-1,1′-indene]-4-carboxylic acid]: 129 nM; for `Cc1c[nH]c2nccc(OCCCC3Cc4ccccc4[C@]34CC[C@@](Nc3cccc(Cl)c3)(C(=O)O)CC4)c12` (stereo partly shown) [Example 458, (1r,4r)-4-(3-chloroanilino)-2′-{3-[(3-methyl-1H-pyrrolo[2,3-b]pyridin-4-yl)oxy]propyl}-2′,3′-dihydrospiro[cyclohexane-1,1′-indene]-4-carboxylic acid]: 110 nM; for `O=C(O)C1(Nc2cccc(Cl)c2)CCC2(CC1)c1ccccc1CC2CCCOc1ncnc2c1CCCC2` (stereo not shown) [Example 460, (1r,4r)-4-(3-chloroanilino)-2′-{3-[(5,6,7,8-tetrahydroquinazolin-4-yl)oxy]propyl}-2′,3′-dihydrospiro[cyclohexane-1,1′-indene]-4-carboxylic acid]: 159 nM. To `CC1(C)CCc2ncnc(OCCCC3Cc4ccccc4[C@]34CC[C@@](Nc3cccc(Cl)c3)(C(=O)O)CC4)c21` (stereo partly shown) [Example 466, (1r,4r)-4-(3-chloroanilino)-2′-{3-[(5,5-dimethyl-6,7-dihydro-5H-cyclopenta[d]pyrimidin-4-yl)oxy]propyl}-2′,3′-dihydrospiro[cyclohexane-1,1′-indene]-4-carboxylic acid] belongs 56.6 nM.
